Source: patent publication US8927577B2, “Quinolinyl glucagon receptor modulators” (Pfizer Inc., priority 2011, dated 2015)

What was measured:
human glucagon receptor [1] = target: T1, human glucagon receptor (Homo sapiens (Human), UniProt P47871); test: Glucagon cAMP Assay; assay type: cell-based; conditions: CHOK1 cells stably transfected with the human glucagon receptor; 100 pM glucagon challenge; Kb from IC50 by modified Cheng-Prusoff equation
Description: The Cisbio cAMP detection assay is used to determine the ability of punitive glucagon antagonist to block glucagon induced cAMP production. Potential glucagon antagonists are re-suspended and diluted in 100% DMSO. Prior to use in the Glucagon cAMP assay 100×DMSO compound stocks are diluted 20× with DMEM-F12 media (Invitogen) containing either 0.1% or 4% BSA. 2 uls of 5× compound stocks are spotted into the appropriate wells of low binding white solid bottom 384 well plates (Corning). 2 uls of 5% DMSO or known glucagon antagonist are added to each plate to define the assay window. CHOK1 cells stably transfected with the human glucagon receptor are removed from culture flasks with cell dissociation buffer. Cell pellets are re-suspended, at a concentration of 8.3e^5 cells/ml in DMEM-F12 with or without 4% BSA and 200 uM IBMX. 6 uls of cell suspensions are added to the assay plates. Plates are incubated for 20 min at room temperature prior to the addition of a 100 pM challenge dose of glucagon. On a separate plate glucagon dose response curves are run to determine the EC50 of glucagon. After a 30 min room temperature incubation the reaction is terminated by the addition of lysis buffer containing the cAMP detection reagents. Plates are incubated for an additional 60 min at room temperature prior to being read on the Perkin Elmer fluorescent plate reader. Raw is converted to nM of cAMP produced based on a cAMP standard curve. Converted data is then analyzed using the Pfizer data analysis program. IC50 values are determined from the generated sigmoidal dose response curves. Kb values are the calculated using a modified Cheng-Prusoff equation.

human glucagon receptor [2] = target: T1, human glucagon receptor; test: Human Glucagon SPA Assay; conditions: membrane from chem-1 cells stably transfected with the human glucagon receptor; 125 pM [125I]Glucagon-Cex; Ki by Cheng-Prusoff equation; read-out: Binding Ki
Description: The Glucagon SPA assay is used to determine the ability of test compounds to block the binding of glucagon-cex to the glucagon receptor. Test compounds are re-suspended and serially diluted in 100% DMSO. 1 ul of test compound at the desired concentrations is spotted into the appropriate wells of 96 well low binding white clear bottom plate (Corning). 1 ul of DMSO is spotted into total binding wells. 1 ul of a known glucagon antagonist at a concentration of 20 uM is added to non specific binding wells. […] All assay ingredients with the exception of test compounds are re-suspended in the following buffer; 50 mM Hepes pH 7.4; 5 mM MgCl2; 1 mM CaCl; 5% glycerol and 0.2% BSA. Following a 6-10 hr incubation at room temperature the amount of hot ligand bound to the cell membranes is determined by reading the plates on a Wallac Trilux radioactive emission detector. Data is analyzed using Pfizer's Data analysis program. IC50 values are then determined from the generated sigmoidal dose response curves. Ki values are calculated using Cheng-Prusoff equation.

T1 sequence (P47871 26-477): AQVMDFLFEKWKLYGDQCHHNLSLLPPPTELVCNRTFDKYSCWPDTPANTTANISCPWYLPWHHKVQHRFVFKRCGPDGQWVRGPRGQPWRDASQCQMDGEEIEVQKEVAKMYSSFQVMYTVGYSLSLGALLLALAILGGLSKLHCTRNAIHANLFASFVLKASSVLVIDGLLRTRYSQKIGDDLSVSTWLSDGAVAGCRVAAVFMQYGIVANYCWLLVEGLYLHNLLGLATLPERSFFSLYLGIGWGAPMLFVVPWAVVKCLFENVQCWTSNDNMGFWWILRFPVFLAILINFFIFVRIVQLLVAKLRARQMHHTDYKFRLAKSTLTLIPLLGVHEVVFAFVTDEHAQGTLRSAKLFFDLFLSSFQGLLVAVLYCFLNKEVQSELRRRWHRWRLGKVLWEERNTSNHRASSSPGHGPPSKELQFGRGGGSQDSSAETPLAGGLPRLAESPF

| SMILES | Kb (human glucagon receptor [1]) [nM] | Ki (human glucagon receptor [2]) [nM] |
| --- | --- | --- |
| Cc1cc2ccccc2nc1NC(c1ccc(C(=O)NCCC(=O)O)cc1)C1CC(C)(C)C1 (single isomer, unassigned; isomer 1) [Example 32, 3-{4-[(3,3-dimethyl-cyclobutyl)-(3-methyl-quinolin-2-ylamino)-methyl]-benzoylamino}-propionic acid, isomer 1] | 23 | 53 |
| CC1(C)CC(C(Nc2cnc3ccc(F)cc3c2)c2ccc(C(=O)NCCC(=O)O)cc2)C1 (racemic) [Example 23, (+/−)3-(4-((3,3-dimethylcyclobutyl)(6-fluoroquinolin-3-ylamino)methyl)benzamido)propanoic acid] | 63 | 50 |
| Cc1cc2ccccc2nc1NC(CC(C)C)c1ccc(C(=O)NCCC(=O)O)cc1 (single isomer, unassigned; isomer 2) [Example 31, 3-(4-(3-methyl-1-((3-methylquinolin-2-yl)amino)butyl)benzamido)propanoic acid, Isomer 2] | 1300 | 1240 |
| CC(C)CC(Nc1ccc2cc(C(F)(F)F)ccc2n1)c1ccc(C(=O)NCCC(=O)O)cc1 (racemic) [Example 16, (+/−)3-(4-(3-methyl-1-(6-(trifluoromethyl)quinolin-2-ylamino)butyl)benzamido)propanoic acid] | 800 | 91 |
| Cc1cc2ccccc2nc1NC(CC(C)C)c1ccc(C(=O)NCCC(=O)O)cc1 (single isomer, unassigned; isomer 1) [Example 30, 3-(4-(3-methyl-1-((3-methylquinolin-2-yl)amino)butyl)benzamido)propanoic acid, Isomer 1] | 69 | 76 |
| Cc1cc2ccc(F)cc2nc1NC(c1ccc(C(=O)NCCC(=O)O)cc1)C1CC(C)(C)C1 (racemic) [Example 21, (+/−)-3-{4-[(3,3-dimethyl-cyclobutyl)-(7-fluoro-3-methyl-quinolin-2-ylamino)-methyl]-benzoylamino}-propionic acid] | 160 | 133 |
| CCC[C@H](Nc1nc2ccccc2cc1C)c1ccc(C(=O)NCCC(=O)O)cc1 [Example 2, (−)-3-(4-(1-((3-Methylquinolin-2-yl)amino)butyl)benzamido)propanoic acid] | 520 | 280 |
| CC(C)CC(Nc1ccc2cccc(Cl)c2n1)c1ccc(C(=O)NCCC(=O)O)cc1 (racemic) [Example 13, (+/−)-3-{4-[1-(8-chloro-quinolin-2-ylamino)-3-methyl-butyl]-benzoylamino}-propionic acid] | 140 | 199 |
